The values that follow come from patent publication US4465851A, “Guanidinocyclohexanecarboxylic acid derivatives” (Nippon Chemiphar Co., Ltd., priority 1981, dated 1984).

Where “and” joins values, the source holds several entries; their conditions need not be identical. Equal entries are not always repeated. Structures can show the parent of a compound that is named as a salt. Bounds are passed on as bounds.

As usually defined, the LD50 is the dose expected to kill half of the subjects tested. Low values mean a more toxic substance, high ones a less toxic substance. The term inhibition denotes the relative decrease from the control value, in per cent.

The target of series [1] is Plasmin (Homo sapiens, UniProt P00747). Description: Inhibition of plasmin (TAMe hydrolysis). The class given is biochemical. The conditions noted are these: TAMe substrate; read-out: Concentration for 50% inhibition (IC50), plasmin. As to the method: (§1) Inhibitory effects on the TAMe(N^α -tosyl-L-arginine methyl ester) hydrolytic activity of trypsin, plasmin, plasma kallikrein and thrombin were estimated by Hesterin's method modified by Roberts. Inhibition of the BAEe(N^α -benzoyl-L-arginine ethyl ester) hydrolytic activity of pancreas kallikrein was determined by Hesterin's method after incubation at 37° C. for 30 minutes in a 0.1M borate buffer, pH 8.0. Inhibitory effects on urokinase were determined by the chromotropic acid method after incubation of 60 iu of urokinase with 10 mM AGLMe(acetylglycyl-L-lysine methyl ester) at 37° C. for 30 minutes in a 0.06M phosphate buffer, pH 7.5, containing 0.09M NaCl. Inhibition of chymotrypsin was determined by Hesterin's method after incubation with 15 mM ATE (N^α -acetyl-L-tyrosine ethyl ester) for 30 minutes at 37° C. in a 0.1M borate buffer, pH 8.0.
Plasmin (Homo sapiens, UniProt P00747), sequence (P00747 97-580 limits assumed, species assumed): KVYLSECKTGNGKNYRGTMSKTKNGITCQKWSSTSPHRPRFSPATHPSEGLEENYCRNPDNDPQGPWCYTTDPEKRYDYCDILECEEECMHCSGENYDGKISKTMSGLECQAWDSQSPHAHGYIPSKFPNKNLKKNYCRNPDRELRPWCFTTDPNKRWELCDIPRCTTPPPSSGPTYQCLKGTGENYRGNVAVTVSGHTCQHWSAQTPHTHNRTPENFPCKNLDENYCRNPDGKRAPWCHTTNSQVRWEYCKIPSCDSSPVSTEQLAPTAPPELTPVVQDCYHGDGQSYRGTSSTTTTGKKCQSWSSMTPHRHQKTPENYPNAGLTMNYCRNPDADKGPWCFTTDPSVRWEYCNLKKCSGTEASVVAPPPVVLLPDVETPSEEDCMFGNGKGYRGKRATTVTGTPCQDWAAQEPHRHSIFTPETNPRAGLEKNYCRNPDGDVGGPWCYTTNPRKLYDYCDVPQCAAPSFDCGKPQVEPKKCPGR

A further series in a line: Acute toxicity in mice. Particulars: mouse, in vivo, po. As to the method: (§2) Normal ICR strain mice (female: 22 g, male: 24 g) or Wister strain rats (female: 90 g, male: 95 g) were used. A test compound was orally given using a gastric sonde. […] The LD50 values were calculated by the Litchfield-Wilcoxon method.
For series [2], the system named is guinea pigs ilea. Briefly: Anti-histamine action. On the set-up: species or system guinea pig. The conditions noted are these: Cavia porcellus, read-out: Anti-histamine effect inhibition of contraction. An excerpt: (§3) Anti-acetylcholine and anti-histamine effects of the present compounds were examined using guinea pigs ilea by the usual method.
Series [3] can be described thus: Experimental asthma with actively sensitized guinea pigs. The class given is in vivo, Hartley male guinea pigs. The conditions noted are these: individual animals, hydrochloride. As to the method:
The evaluation was also performed in the experimental asthma with actively sensitized guinea pigs as follows: Hartley male guinea pigs each weighing 300 to 350 g were sensitized (by subcutaneous injection into the inguinal region) with an egg albumin solution (1 mg/ml) emulsified with an equal volume of Freund's complete adjuvant (5 mg/kg of body weight). Ten days later, the emulsion was injected subcutaneously into the axilla. On the 26th day after the first sensitization, the animals were subjected to the experiments which were conducted in the same manner as in the passively sensitized animals.

The target in another series is T1, Trypsin (Bos taurus, UniProt P00760).
T1 sequence (P00760 24-246): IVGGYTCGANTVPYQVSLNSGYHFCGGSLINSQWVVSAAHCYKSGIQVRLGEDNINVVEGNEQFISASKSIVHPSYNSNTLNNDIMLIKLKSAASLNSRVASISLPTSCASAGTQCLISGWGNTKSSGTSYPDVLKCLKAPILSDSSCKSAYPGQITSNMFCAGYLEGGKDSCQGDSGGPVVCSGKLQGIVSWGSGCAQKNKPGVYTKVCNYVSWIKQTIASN
Description: Inhibition of trypsin (TAMe hydrolysis). The format is biochemical. Particulars: TAMe substrate; read-out: Concentration for 50% inhibition (IC50), trypsin. As to the method:
as §1

For a further series, the system named is Mast cells. Description: Effects on histamine release from mast cells induced by compound 48/80. The class given is cell-based. Particulars: Mast cell, read-out: Inhibition of histamine release.
In another series the target is Thrombin (Homo sapiens, UniProt P00734). Description: Inhibition of thrombin (TAMe hydrolysis). The format is biochemical. Particulars: TAMe substrate; read-out: Concentration for 50% inhibition (IC50), thrombin.
Series [4] has as its system guinea pigs ilea. Briefly: Anti-acetylcholine action. Also noted: species or system guinea pig. The conditions noted are these: Cavia porcellus, read-out: Anti-acetylcholine effect inhibition of contraction.
Source text: as §3

A short description of series [5]: Experimental asthma with passively sensitized guinea pigs. The format is in vivo, Hartley male guinea pigs. Particulars: 500 mg/kg oral, individual animals (10 animals). As to the method: Hartley male guinea pigs each weighing 300 to 350 g were passively sensitized by intravenous injection with rabbit anti-egg albumin serum (0.5 ml/kg). 24 hours after passive sensitization, the guinea pigs were placed in a chamber for an inhalation test and then subjected to continuous spraying for 900 seconds with a mist of a 2% egg albumin solution. A test sample suspended in 5% gum arabic was orally administered 1 hour prior to the antigen challenge. The preconvulsion time was measured.

Series [6] relates to ileum of each sensitized guinea pig. Briefly: Schultz-Dale reaction. The conditions noted are these: Cavia porcellus, read-out: Inhibition of contraction (Schultz-Dale reaction). As to the method: Male guinea pigs were sensitized with bovine serum albumin by Freund's complete adjuvant method. After a lapse of 10 days, the animals were sensitized once more as described above. After two more weeks, an ileum of each sensitized guinea pig was removed and used for experiment. The ileum was equipped in a magnus tube containing each test sample, and 500 μg of bovine serum albumin was added. The contraction of the ileum was determined.

Another series concerns the target Pancreas kallikrein (Sus scrofa, UniProt P00752). Briefly: Inhibition of pancreas kallikrein (BAEe hydrolysis). The format is biochemical. Particulars: BAEe substrate, 37° C., 30 minutes, pH 8.0; read-out: Concentration for 50% inhibition (IC50), pancreas kallikrein. As to the method: as §1
The next series addresses Chymotrypsin (Bos taurus, UniProt P00766). Briefly: Inhibition of chymotrypsin (ATE hydrolysis). The conditions noted are these: 15 mM ATE, 30 minutes, 37° C., pH 8.0; read-out: Concentration for 50% inhibition (IC50), chymotrypsin. The class given is biochemical. As to the method: as §1
Another series is described as follows: Acute toxicity in rats. Particulars: rat, in vivo, po. As to the method: as §2
Series [7] is described as follows: Passive cutaneous anaphylaxis. The conditions noted are these: rat, 125 mg/kg, p.o., 1 hour prior to antigen; dilution ratio of antigen × 32. The format is in vivo. As to the method: Diluted anti-egg albumin (rat anti-egg albumin serum) with saline (0.05 ml) was subcutaneously injected into the back of a rat. 48 hours later, egg albumin and Evans' blue dissolved in saline (egg albumin 10 mg and Evans' blue 5 mg/ml) were intravenously injected into the rat in an amount of 2.5 ml/kg. 45 minutes later, the rat was killed, bled and skined, and the permeated area (mm^2) of the dye was measured. Test samples were administered per os 1 hour prior to antigen injection.

The target in another series is Urokinase (Homo sapiens, UniProt P00749). Description: Inhibition of urokinase (AGLMe, chromotropic acid method). The format is biochemical. Particulars: 60 iu urokinase, 10 mM AGLMe, 37° C., 30 minutes, pH 7.5; read-out: Concentration for 50% inhibition (IC50), urokinase. As to the method:
as §1

The nature of series [8]: Active systemic anaphylaxis in mice. The class given is in vivo. The conditions noted are these: oral, survivors of 5 mice. As to the method:
Egg albumin (10 mg) was mixed with 10 ml Bordetella pertusis vaccine (Takeda Chemical Industries, Ltd.), and the mixture was intraperitoneally injected into mice in an amount of 10 ml/kg. 22 days later, active systemic anaphylaxis was induced by intravenous injection of egg albumin dissolved in saline in an amount of 3 mg/10 ml/kg. A test sample suspended in 5% gum arabic was administered orally to the sensitized mice 1 hour prior to the antigen challenge. 24 hours after the antigen challenge, the number of survived mice was counted.

In a further series the target is Plasma kallikrein (Homo sapiens, UniProt P03952). Briefly: Inhibition of plasma kallikrein (TAMe hydrolysis). The format is biochemical. The conditions noted are these: TAMe substrate; read-out: Concentration for 50% inhibition (IC50), plasma kallikrein. As to the method: as §1
Plasma kallikrein, sequence (P03952 20-390 limits assumed, species assumed): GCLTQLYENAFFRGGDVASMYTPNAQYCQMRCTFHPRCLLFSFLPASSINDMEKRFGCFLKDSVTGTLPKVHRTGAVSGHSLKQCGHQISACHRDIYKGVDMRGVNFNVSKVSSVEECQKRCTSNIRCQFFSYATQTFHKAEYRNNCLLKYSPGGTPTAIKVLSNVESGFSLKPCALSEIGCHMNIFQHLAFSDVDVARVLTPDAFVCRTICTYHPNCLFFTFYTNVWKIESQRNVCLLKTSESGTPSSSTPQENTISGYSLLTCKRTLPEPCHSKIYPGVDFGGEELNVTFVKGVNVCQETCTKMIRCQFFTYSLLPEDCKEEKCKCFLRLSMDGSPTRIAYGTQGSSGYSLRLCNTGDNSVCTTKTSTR
Series [9] relates to Plasmin. The conditions noted are these: J. Med. Chem., Vol. 15, No. 3, 247 (1972); cited from earlier work.

Pancreas kallikrein, sequence (P00752 15-246 limits assumed): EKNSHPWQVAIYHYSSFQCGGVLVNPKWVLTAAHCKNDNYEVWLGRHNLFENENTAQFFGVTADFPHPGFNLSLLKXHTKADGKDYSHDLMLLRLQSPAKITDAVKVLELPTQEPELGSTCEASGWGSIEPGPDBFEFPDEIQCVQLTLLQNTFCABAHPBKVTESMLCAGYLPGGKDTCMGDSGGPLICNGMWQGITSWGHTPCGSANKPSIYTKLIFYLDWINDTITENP
Description for Mast cells: After incubation for 20 minutes at 37° C., the suspension was cooled to 4° C., and released histamine was determined as described by Shore et al. All samples examined were recognized to cause no disturbance in the fluorometric assay.

For the compound `CC(C)(C)c1ccc(OC(=O)[C@H]2CC[C@H](CNC(=N)N)CC2)cc1` [Compound 2, 4'-t-Butylphenyl trans-4-guanidinomethylcyclohexanecarboxylate hydrochloride], the IC50 at Plasmin [1] was 260 µM; on Trypsin, 170 µM; at Thrombin, 250 µM; on Pancreas kallikrein it was 62 µM; at Chymotrypsin it was 97 µM; at Urokinase it was 36 µM. For the same compound, the IC50 at Plasma kallikrein was determined as 150 µM. Besides, the 50% lethal dose (LD50) at 168 h in “Acute toxicity in mice” is 7300 mg/kg; in the series “Acute toxicity in rats”, 10800 mg/kg. The LD50 in “Acute toxicity in mice” (10080 min, hydrochloride) is 5400 mg/kg; in “Acute toxicity in rats” (10080 min, hydrochloride), 11,000 mg/kg. Further, the values for the inhibition at 25 µg/mL (with guinea pigs ilea [2]; in the series on guinea pigs ilea [4] (final conc. 25 μg/ml); in series [6]) were 82%, 96% and 64.3%, respectively. Further, the inhibition at 50 µg/mL with guinea pigs ilea [2] was 96.5%; in the series with guinea pigs ilea [4] (final conc. 50 μg/ml) it was 100%; in [6], 100%. The “Time to fall down” value is 699 sec. and > 900 sec. (4×) in series [3] (125 mg/kg oral, 125 mg/kg); 632 sec. and > 900 sec. (4×) in [3] (250 mg/kg oral, 250 mg/kg); 768 sec. and > 900 sec. (4×) in [3] (500 mg/kg oral, 500 mg/kg); above 900 s in [5]. Besides, the inhibition at 10 µg/mL in the series on Mast cells was found to be 46.7%. For the same compound, in series [7], the “Inhibition of passive cutaneous anaphylaxis” value turned out to be 91.16%. For the same compound, the “Survival after 24 hr. (5 mice)” value in series [8] (100 mg/kg) came to 2 mice; in [8] (250 mg/kg), 2 mice; in series [8] (500 mg/kg) it was 4 mice.

Turning to `N=C(N)NCC1CCC(C(=O)O)CC1` (stereo not drawn) [4-guanidinomethylcyclohexanecarboxylic acid], the anti-plasmin effects result in the series with Plasmin [9] is given as “slight anti-plasmin effects”.
